# Assay: Analysis of byproducts in soil after trichloroethylene decomposition by UV-sterilized bacterial mass
# Procedure: After plating the suspension of the bacterial mass onto a petri dish to a thickness of about 1 mm, and then sterilized under irradiation of a 15 W ultra violet lamp with a wavelength of 260 nm for not less than 60 seconds at a distance of 40 cm from the light source.
# After that, trichloroethylene in the soil was allowed to be decomposed and the byproducts which is believed to be formed in association with trichloroethylene decomposition were analyzed in a similar manner to Example 13. Furthermore, in an experiment in which the suspension of sterilized bacterial mass at an amount of 1/100 of that of the NYG medium was inoculated or the suspension was plated as it was onto the NYG agar medium and cultured at 30°C, neither increase in turbidity of the culture liquid nor colony formation were observed, and thereby it was confirmed that there was complete sterilization.
smiles,measurement,value
OCC(Cl)(Cl)Cl [Trichloroethanol],Result (byproduct in the soil),Not detected
